Test results taken from ChEMBL document CHEMBL1123349, “Analogues of 1,3-dipropyl-8-phenylxanthine: enhancement of selectivity at A1-adenosine receptors by aryl substituents” (J Med Chem, 1986).
Where “and” joins values, the source holds several entries; their conditions need not be identical. Equal values may be shown once.

Columns and labels:
[1] = target: Adenosine receptors; A1 & A2 (Rattus norvegicus) (UniProt P29276+P25099+P30543); experiment: Selectivity ratio was expressed as the ratio of binding affinity towards Adenosine A2 receptor to that of Adenosine A1 receptor in rat
[2] = target: Adenosine A2 receptor (Rattus norvegicus, UniProt P29276+P30543); experiment: Binding affinity against A2 adenosine receptors of the central nervous system; assay type: protein assay
[3] = target: T1, Adenosine receptor A1 (Rattus norvegicus, UniProt P25099); experiment: Binding affinity against A1 adenosine receptors of the central nervous system
T1 sequence (P25099 whole entry): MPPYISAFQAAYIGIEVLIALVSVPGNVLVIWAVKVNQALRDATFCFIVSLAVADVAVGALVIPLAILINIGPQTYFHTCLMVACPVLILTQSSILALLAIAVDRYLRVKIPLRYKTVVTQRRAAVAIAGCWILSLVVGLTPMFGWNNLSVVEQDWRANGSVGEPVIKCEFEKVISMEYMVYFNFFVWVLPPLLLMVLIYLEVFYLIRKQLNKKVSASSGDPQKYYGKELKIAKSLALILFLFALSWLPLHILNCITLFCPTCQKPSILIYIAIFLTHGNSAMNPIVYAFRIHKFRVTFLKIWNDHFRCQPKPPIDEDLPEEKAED

Compound | Ratio [1] | Ki [2] | Ki [3]
CCCn1c(=O)c2nc(-c3ccc(O)c(Cl)c3)[nH]c2n(CCC)c1=O | 3.9 | 140 nM | –
CCCn1c(=O)c2nc(-c3ccc(OC)cc3)[nH]c2n(CCC)c1=O | – | – | 14 nM
CCCn1c(=O)c2nc(-c3ccc(OC(C)=O)cc3)[nH]c2n(CCC)c1=O | 1.5 | 12 nM | 8 nM
CCCn1c(=O)c2[nH]c(-c3ccc(F)cc3F)nc2n(CCC)c1=O | – | – | 51 nM
CCCn1c(=O)c2nc(-c3ccc(Cl)cc3OC)[nH]c2n(CCC)c1=O | > 7 | > 3000 nM | 420 nM
CCCn1c(=O)c2nc(-c3cc(O)ccc3O)[nH]c2n(CCC)c1=O | 9.7 | 3500 nM | 360 nM
CCCn1c(=O)c2nc(-c3ccc(Cl)cc3N)[nH]c2n(CCC)c1=O | 400 | 1000 nM | –
CCCn1c(=O)c2[nH]c(-c3ccc(O)cc3O)nc2n(CCC)c1=O | – | – | 15 nM
CCCn1c(=O)c2nc(-c3ccc(S(N)(=O)=O)cc3)[nH]c2n(CCC)c1=O | 15 | 115 nM | 8.5 nM
CCCn1c(=O)c2nc(-c3ccc(N)cc3N)[nH]c2n(CCC)c1=O | 2.8 | 13 nM | 4.6 nM
CCCn1c(=O)c2nc(-c3ccc(N)cc3)[nH]c2n(CCC)c1=O | 1 | 28 nM | 27 nM
CCCn1c(=O)c2nc(-c3cccc(O)c3O)[nH]c2n(CCC)c1=O | 6.4 | 210 nM | 33 nM
CCCn1c(=O)c2nc(-c3ccc(S(=O)(=O)O)cc3)[nH]c2n(CCC)c1=O | 3.4 | 710 nM | –
CCCn1c(=O)c2nc(-c3ccc(N(C)C)cc3)[nH]c2n(CCC)c1=O | 2.2 | 100 nM | 45 nM
CCCn1c(=O)c2nc(-c3ccc(C(N)=O)cc3)[nH]c2n(CCC)c1=O | – | 72 nM and 55 nM | 7 nM and 25 nM
CCCn1c(=O)c2[nH]c(-c3ccc(OC)cc3O)nc2n(CCC)c1=O | 89 | 980 nM | 11 nM
CCCn1c(=O)c2nc(-c3ccc(F)cc3F)[nH]c2n(CCC)c1=O | 5.9 | 290 nM | –
CCCn1c(=O)c2[nH]c(-c3ccc(O)c(Cl)c3)nc2n(CCC)c1=O | – | – | 36 nM
